The source of these data is the supplement of paper PMC10307832.

What all share (assay): relative viability (nuclei count vs DMSO), 5 days (fraction); higher = more cells survive
Compound in experiment [1]: C1=CC2=C(C=C(C(=C2N=C1)O)N=NC3=CC4=C(C=C3)C=C(C=C4)S(=O)(=O)O)S(=O)(=O)O + Nc1ncn([C@H]2C[C@H](O)[C@@H](CO)O2)c(=O)n1 [Decitabine] (partner 2 µM)
Summed up:
(§1)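 For relative viability, nuclei counts in treated wells were divided by those in vehicle wells. Lung cancer cell lines had been pin-tool dosed in 1536-well plates the day after seeding and cultured for 5 days, then fixed and stained in one step (final 0.05% Triton X-100, 1% formaldehyde, 1 ug/ml Hoechst) and imaged at 4×. Doses were one drug alone or a fixed anchor-drug dose plus five library-drug doses (not always all listed) in √10 steps, and values are duplicate-plate medians.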

Compound in experiment [2]: C1=CC2=C(C=C(C(=C2N=C1)O)N=NC3=CC4=C(C=C3)C=C(C=C4)S(=O)(=O)O)S(=O)(=O)O + CCNC(=O)c1noc(-c2cc(C(C)C)c(O)cc2O)c1-c1ccc(CN2CCOCC2)cc1 [Luminespib] (partner 0.01 µM)
Summed up:
as §1

Compound in experiment [3]: C1=CC2=C(C=C(C(=C2N=C1)O)N=NC3=CC4=C(C=C3)C=C(C=C4)S(=O)(=O)O)S(=O)(=O)O + N=C(N)NC(=N)NCCc1ccccc1 [Phenformin] (partner 250 µM)
Summed up:
as §1

Compound in experiment [4]: O=C(NC1CCNCC1)c1n[nH]cc1NC(=O)c1c(Cl)cccc1Cl [AT-7519] + C[C@]1(O)C[C@@H](c2nc(-c3ccc4ccc(-c5ccccc5)nc4c3)c3c(N)nccn32)C1 [Linsitinib] (partner 1 µM)
The method in brief: as §1

Regarding EMC-BAC-2, the relative viability worked out at 1.03 in experiment [1] (first compound 0.08 µM); 0.991 in experiment [1] (first compound 0.253 µM); 0.953 in experiment [1] (first compound 0.8 µM); 1.05 in experiment [1] (first compound 2.53 µM); 0.98 in experiment [1] (first compound 8 µM); 1.25 in experiment [2] (first compound 0.08 µM). The relative viability in experiment [2] (first compound 0.253 µM) was 1.05; in experiment [2] (first compound 0.8 µM), 1.2; in experiment [2] (first compound 2.53 µM), 1.24; in experiment [2] (first compound 8 µM), 1.13; in experiment [3] (first compound 0.08 µM) it was 0.587; in experiment [3] (first compound 0.253 µM), 0.561. The relative viability came out at 0.514 in experiment [3] (first compound 0.8 µM); 0.526 in experiment [3] (first compound 2.53 µM); 0.427 in experiment [3] (first compound 8 µM); 0.823 in experiment [4] (first compound 0.01 µM); 0.816 in experiment [4] (first compound 0.03162 µM); 0.778 in experiment [4] (first compound 0.3162 µM). Besides, in experiment [4] (first compound 1 µM), the relative viability was found to be 0.77.

In the case of LK-2, the relative viability was determined as 0.417 in experiment [1] (first compound 0.08 µM); 0.254 in experiment [1] (first compound 0.253 µM); 0.201 in experiment [1] (first compound 0.8 µM); 0.384 in experiment [1] (first compound 2.53 µM); 0.296 in experiment [1] (first compound 8 µM); 0.156 in experiment [2] (first compound 0.08 µM). Moreover, the relative viability in experiment [2] (first compound 0.253 µM) amounted to 0.292; in experiment [2] (first compound 0.8 µM), 0.181; in experiment [2] (first compound 2.53 µM) it was 0.231; in experiment [2] (first compound 8 µM), 0.179; in experiment [3] (first compound 0.08 µM) it was 0.639; in experiment [3] (first compound 0.253 µM), 0.36. For the same cell line, the relative viability in experiment [3] (first compound 0.8 µM) was 0.303; in experiment [3] (first compound 2.53 µM), 0.381; in experiment [3] (first compound 8 µM), 0.332; in experiment [4] (first compound 0.01 µM) it was 0.514; in experiment [4] (first compound 0.03162 µM) it was 0.448; in experiment [4] (first compound 0.3162 µM) it was 0.368. Also, the relative viability in experiment [4] (first compound 1 µM) amounted to 0.255.

Consider NCI-H2126, for which the relative viability is 0.577 in experiment [1] (first compound 0.08 µM); 0.567 in experiment [1] (first compound 0.253 µM); 0.599 in experiment [1] (first compound 0.8 µM); 0.612 in experiment [1] (first compound 2.53 µM); 0.609 in experiment [1] (first compound 8 µM); 0.898 in experiment [2] (first compound 0.08 µM). For the same cell line, the relative viability was found to be 0.899 in experiment [2] (first compound 0.253 µM); 0.89 in experiment [2] (first compound 0.8 µM); 1.04 in experiment [2] (first compound 2.53 µM); 0.86 in experiment [2] (first compound 8 µM); 0.564 in experiment [3] (first compound 0.08 µM); 0.535 in experiment [3] (first compound 0.253 µM). In addition, the relative viability in experiment [3] (first compound 0.8 µM) was found to be 0.514; in experiment [3] (first compound 2.53 µM), 0.557; in experiment [3] (first compound 8 µM), 0.559; in experiment [4] (first compound 0.01 µM), 0.747; in experiment [4] (first compound 0.03162 µM), 0.744; in experiment [4] (first compound 0.3162 µM), 0.682. Moreover, the relative viability in experiment [4] (first compound 1 µM) is 0.675.

NCI-H3122: the relative viability in experiment [1] (first compound 0.08 µM) came to 0.415; in experiment [1] (first compound 0.253 µM) it was 0.471; in experiment [1] (first compound 0.8 µM) it was 0.472; in experiment [1] (first compound 2.53 µM), 0.448; in experiment [1] (first compound 8 µM), 0.439; in experiment [2] (first compound 0.08 µM) it was 0.0606. In addition, the relative viability in experiment [2] (first compound 0.253 µM) was determined as 0.111; in experiment [2] (first compound 0.8 µM), 0.0925; in experiment [2] (first compound 2.53 µM), 0.0947; in experiment [2] (first compound 8 µM), 0.102; in experiment [3] (first compound 0.08 µM), 0.369; in experiment [3] (first compound 0.253 µM), 0.379. Moreover, the relative viability in experiment [3] (first compound 0.8 µM) worked out at 0.378; in experiment [3] (first compound 2.53 µM), 0.418; in experiment [3] (first compound 8 µM) it was 0.323; in experiment [4] (first compound 0.01 µM), 0.971; in experiment [4] (first compound 0.03162 µM) it was 1.03; in experiment [4] (first compound 0.3162 µM), 1.06. In addition, the relative viability in experiment [4] (first compound 1 µM) is 0.421.

Take HCC-78: the relative viability in experiment [1] (first compound 0.08 µM) was found to be 0.796; in experiment [1] (first compound 0.253 µM), 0.671; in experiment [1] (first compound 0.8 µM), 0.756; in experiment [1] (first compound 2.53 µM), 0.708; in experiment [1] (first compound 8 µM), 0.589; in experiment [3] (first compound 0.08 µM) it was 0.725. The relative viability was determined as 0.617 in experiment [3] (first compound 0.253 µM); 0.651 in experiment [3] (first compound 0.8 µM); 0.74 in experiment [3] (first compound 2.53 µM); 0.685 in experiment [3] (first compound 8 µM); 0.52 in experiment [4] (first compound 0.01 µM); 0.452 in experiment [4] (first compound 0.03162 µM). The relative viability in experiment [4] (first compound 0.3162 µM) was found to be 0.567; in experiment [4] (first compound 1 µM), 0.374.

With NCI-H1299, the relative viability in experiment [4] (first compound 0.01 µM) was determined as 1.1; in experiment [4] (first compound 0.03162 µM), 0.96; in experiment [4] (first compound 0.3162 µM), 0.946; in experiment [4] (first compound 1 µM), 0.645.

NCI-H1650: the relative viability stood at 0.438 in experiment [1] (first compound 0.08 µM); 0.37 in experiment [1] (first compound 0.253 µM); 0.511 in experiment [1] (first compound 0.8 µM); 0.447 in experiment [1] (first compound 2.53 µM); 0.318 in experiment [1] (first compound 8 µM); 0.197 in experiment [2] (first compound 0.08 µM). In addition, the relative viability in experiment [2] (first compound 0.253 µM) was found to be 0.177; in experiment [2] (first compound 0.8 µM), 0.194; in experiment [2] (first compound 2.53 µM), 0.191; in experiment [2] (first compound 8 µM), 0.184; in experiment [3] (first compound 0.08 µM), 0.427; in experiment [3] (first compound 0.253 µM), 0.444. The results for the relative viability in experiment [3] (first compound 0.8 µM), in experiment [3] (first compound 2.53 µM) and in experiment [3] (first compound 8 µM) were 0.42, 0.418 and 0.322, respectively.

Take ChaGo-K-1: the relative viability came out at 0.54 in experiment [1] (first compound 0.08 µM); 0.534 in experiment [1] (first compound 0.253 µM); 0.532 in experiment [1] (first compound 0.8 µM); 0.439 in experiment [1] (first compound 2.53 µM); 0.528 in experiment [1] (first compound 8 µM); 0.558 in experiment [2] (first compound 0.08 µM). Besides, the relative viability in experiment [2] (first compound 0.253 µM) was determined as 0.573; in experiment [2] (first compound 0.8 µM), 0.587; in experiment [2] (first compound 2.53 µM), 0.595; in experiment [2] (first compound 8 µM), 0.553; in experiment [3] (first compound 0.08 µM), 0.444; in experiment [3] (first compound 0.253 µM) it was 0.491. For the same cell line, the relative viability is 0.525 in experiment [3] (first compound 0.8 µM), 0.531 in experiment [3] (first compound 2.53 µM) and 0.359 in experiment [3] (first compound 8 µM).
